# According to PubChem BioAssay (NCI):
#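 GI50 = concentration required for 50% inhibition of growth. The concentration for full growth arrest is given as TGI.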
# Tests used:
# Assay in all cases: inhibition of tumour cell growth, NCI panel, 384-well format
# [1] = tested on: HCT-116 colon
# [2] = tested on: HOP-92 NSCLC
# [3] = tested on: SF-295 CNS
# [4] = tested on: CCRF-CEM leukemia
# [5] = tested on: CAKI-1 renal
# [6] = tested on: MDA-MB-468 breast
# [7] = tested on: SK-MEL-28 melanoma
# [8] = tested on: MALME-3M melanoma
# [9] = tested on: SK-MEL-5 melanoma
# [10] = tested on: DU-145 prostate
# [11] = tested on: OVCAR-8 ovarian
# [12] = tested on: SR leukemia
# [13] = tested on: OVCAR-5 ovarian
# [14] = tested on: LOX IMVI melanoma
# [15] = tested on: T-47D breast
# [16] = tested on: HCT-15 colon
# [17] = tested on: HOP-62 NSCLC
# [18] = tested on: HT29 colon
# [19] = tested on: MCF7 breast
# [20] = tested on: MDA-MB-231 breast
# [21] = tested on: M14 melanoma
# [22] = tested on: SK-OV-3 ovarian
# [23] = tested on: MOLT-4 leukemia
# [24] = tested on: 786-0 renal
# [25] = tested on: IGROV1 ovarian
# [26] = tested on: A549 NSCLC
# [27] = tested on: TK-10 renal
# [28] = tested on: COLO 205 colon
# [29] = tested on: KM12 colon
# [30] = tested on: NCI-H226 lung
# [31] = tested on: NCI-H522 lung
# [32] = tested on: UO-31 renal
# [33] = tested on: SNB-19 CNS
# [34] = tested on: SF-268 CNS
# [35] = tested on: SW-620 colon
# [36] = tested on: A498 renal
# [37] = tested on: PC-3 prostate
# [38] = tested on: BT-549 breast
# [39] = tested on: NCI/ADR-RES ovarian
# [40] = tested on: K-562 leukemia
# [41] = tested on: OVCAR-3 ovarian
# [42] = tested on: EKVX NSCLC
# [43] = tested on: ACHN renal
# [44] = tested on: SNB-75 CNS
# [45] = tested on: UACC-257 melanoma
# [46] = tested on: NCI-H23 lung
# [47] = tested on: NCI-H460 NSCLC
# [48] = tested on: HL-60(TB) leukemia
# [49] = tested on: RXF 393 renal
# [50] = tested on: SF-539 CNS
# [51] = tested on: RPMI-8226 leukemia
# [52] = tested on: MDA-MB-435 melanoma
# [53] = tested on: OVCAR-4 ovarian
# [54] = tested on: NCI-H322M lung
# [55] = tested on: HS 578T breast
# [56] = tested on: U251 glioblastoma
# [57] = tested on: HCC-2998 colon
# [58] = tested on: SN12C renal
compound,measurement,setting,value
C[C@H](Nc1ccc(C#N)n(C)c1=O)c1cc2cc(Cl)ccc2[nH]c1=O,GI50,[1],29.3 µM
same,TGI,[1],> 100 µM
same,GI50,[2],22.8 µM
same,TGI,[2],90.1 µM
same,GI50,[3],13.6 µM
same,TGI,[3],36.8 µM
same,GI50,[4],25.9 µM
same,TGI,[4],60.7 µM
same,GI50,[5],31.1 µM
same,TGI,[5],> 100 µM
same,GI50,[6],12.7 µM
same,TGI,[6],30.1 µM
same,GI50,[7],36.2 µM
same,TGI,[7],94 µM
same,GI50,[8],26.7 µM
same,TGI,[8],78.8 µM
same,GI50,[9],15.4 µM
same,TGI,[9],29 µM
same,GI50,[10],29.4 µM
same,TGI,[10],> 100 µM
same,GI50,[11],36.2 µM
same,TGI,[11],> 100 µM
same,GI50,[12],20.1 µM
same,TGI,[12],39.4 µM
same,GI50,[13],60.8 µM
same,TGI,[13],> 100 µM
same,GI50,[14],26.4 µM
same,TGI,[14],70.7 µM
same,GI50,[15],22.2 µM
same,TGI,[15],86.9 µM
same,GI50,[16],31.4 µM
same,TGI,[16],> 100 µM
same,GI50,[17],16.4 µM
same,TGI,[17],42.9 µM
same,GI50,[18],42.6 µM
same,TGI,[18],> 100 µM
same,GI50,[19],24 µM
same,TGI,[19],> 100 µM
same,GI50,[20],34.5 µM
same,TGI,[20],> 100 µM
same,GI50,[21],46 µM
same,TGI,[21],> 100 µM
same,GI50,[22],27.9 µM
same,TGI,[22],> 100 µM
same,GI50,[23],12.4 µM
same,TGI,[23],25.1 µM
same,GI50,[24],34 µM
same,TGI,[24],> 100 µM
same,GI50,[25],17 µM
same,TGI,[25],42.8 µM
same,GI50,[26],27.7 µM
same,TGI,[26],> 100 µM
same,GI50,[27],32.5 µM
same,TGI,[27],> 100 µM
same,GI50,[28],61.4 µM
same,TGI,[28],> 100 µM
same,GI50,[29],39.1 µM
same,TGI,[29],> 100 µM
same,GI50,[30],13 µM
same,TGI,[30],31 µM
same,GI50,[31],27.6 µM
same,TGI,[31],> 100 µM
same,GI50,[32],33.8 µM
same,TGI,[32],> 100 µM
same,GI50,[33],41.6 µM
same,TGI,[33],> 100 µM
same,GI50,[34],29.3 µM
same,TGI,[34],> 100 µM
same,GI50,[35],52.9 µM
same,TGI,[35],> 100 µM
same,GI50,[36],29.6 µM
same,TGI,[36],98 µM
same,GI50,[37],19.9 µM
same,TGI,[37],76.1 µM
same,GI50,[38],19.4 µM
same,TGI,[38],54.2 µM
same,GI50,[39],19.8 µM
same,TGI,[39],48.6 µM
same,GI50,[40],35.1 µM
same,TGI,[40],> 100 µM
same,GI50,[41],17.8 µM
same,TGI,[41],40.7 µM
same,GI50,[42],26.3 µM
same,TGI,[42],> 100 µM
same,GI50,[43],30.8 µM
same,TGI,[43],> 100 µM
same,GI50,[44],20.3 µM
same,TGI,[44],73.7 µM
same,GI50,[45],20.6 µM
same,TGI,[45],38.4 µM
same,GI50,[46],25.3 µM
same,TGI,[46],75.8 µM
same,GI50,[47],19.3 µM
same,TGI,[47],52 µM
same,GI50,[48],20.9 µM
same,TGI,[48],35.3 µM
same,GI50,[49],19.1 µM
same,TGI,[49],53 µM
same,GI50,[50],32.3 µM
same,TGI,[50],> 100 µM
same,GI50,[51],11.4 µM
same,TGI,[51],24.4 µM
same,GI50,[52],30.6 µM
same,TGI,[52],69.6 µM
same,GI50,[53],16.1 µM
same,TGI,[53],49.6 µM
same,GI50,[54],33.2 µM
same,TGI,[54],> 100 µM
same,GI50,[55],21.4 µM
same,TGI,[55],74 µM
same,GI50,[56],31.2 µM
same,TGI,[56],> 100 µM
same,GI50,[57],16.4 µM
same,TGI,[57],52.3 µM
same,GI50,[58],31.4 µM
same,TGI,[58],> 100 µM
